Usually Ki stands for the dissociation constant of the complex between target and ligand, obtained from inhibition or displacement. In general, Kd refers to the equilibrium constant for the complex coming apart.

Where two headings read alike, the source gives them in different places. Where a SMILES comes first, the peptide text is derived from it. Bridges are numbered along the chain shown (N, C = ends). [ ]: non-standard residue; d: D form. The star is where a group is joined. Tyr(3-Cl) = N[C@@H](Cc1ccc(O)c(Cl)c1)C(=O)O; Nicotinoyl(6-F) = O=C(c1ccc(F)nc1)*; Hyp = O=C(O)[C@@H]1C[C@@H](O)CN1

Assay [1] concerns the target T1, soluble fibrin fragment DD(E) (Homo sapiens, UniProt P02671+P02675+P02679, DEL433-453).
T1 construct: partial plasmin digestion of purified fibrin gel followed by size-exclusion chromatographic purification; made in house
Briefly: Fluorescence polarization DD(E) binding/displacement assay. Conditions: for Ki: displacement of TRITC-labelled peptide from DD(E), TBS·Ca with 2% DMSO, estimated uncertainty ±10%; for Kd: sub-micromolar affinity, read-out: affinity (Kd) to fibrin as assessed by DD(E) assay. On the procedure: DD(E) was prepared using a published procedure which involved partial plasmin digestion of purified fibrin gel followed by size-exclusion chromatographic purification, and purity was assessed by SDS-PAGE. Peptides modified at the N-terminus with tetramethyl-rhodamine (TRITC) dye bind to DD(E). Direct fluorescent peptide binding to DD(E) was measured by a fluorescence polarization (FP) assay. The anisotropy (robs) of the fluorescently labeled peptides binding to DD(E) (0-20 μM) was measured in Tris buffered saline (50 mM Tris, 100 mM NaCl and 2 mM CaCl2) at fixed compound concentrations, and the data were fit to a single site model (Eq. 1) to obtain the dissociation constant (Kd) for the DD(E)·(fluorescent peptide) complex.
Displacement of the fluorescent peptide by non-fluorescent compound was measured to determine inhibition constants (Ki). In the presence of an inhibitor, an apparent dissociation constant for the fluorescent compound (Kd app) is determined using Eq. 2. The inhibition constant Ki is related to Kd app by Eq. 2, wherein Kd is the true dissociation constant of the fluorescent compound measured in the absence of inhibitor.
Non-labeled peptide binding to DD(E) was measured by a compound displacement assay, where a DD(E)/Fl·pep complex formed at fixed concentrations of DD(E) and Fl·pep was titrated with increasing concentrations of unlabeled compound. The compound was assayed by mixing DD(E) (4.0 μM, 10 μL) and TRITC (0.1 μM, 10 μL) with increasing concentrations of competing peptide (0.4-100 μM, 20 μL) in TBS·Ca with 2% DMSO in a final volume of 40 μL. Fluorescence polarization of the samples (10 μL, triplicate wells) in ascending concentrations was measured in a 384-well microplate (Corning flat black plate), using a Tecan Infinite 200 Pro fluorescence microplate reader equipped with fluorescence polarization filters, a 535 nm excitation filter and a 590 nm fluorescence emission filter. Average polarization (mP units) readings for each dilution of the compound of interest was converted to anisotropy (r) using Eq. 3.
The data defined a displacement curve (robs vs. [Peptide]), and the inhibitory binding constant, Ki, was determined by least squares fitting of the data (estimated uncertainty in Ki±10%). See Table 2 for the Ki values for the Compounds from Example 1.

Assay [2] concerns the target soluble fibrin fragment DD(E). Kind of assay: fluorescence polarization, displacement of the TRITC peptide from DD(E). On the technique in general: In fluorescence polarisation assays a small probe gives low polarisation when free and higher when bound to something large.

T1 sequence (P02671 130-216 limits assumed, stated change not applied): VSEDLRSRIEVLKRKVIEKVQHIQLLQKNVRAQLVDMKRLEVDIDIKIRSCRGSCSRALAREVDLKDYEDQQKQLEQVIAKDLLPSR
T1 sequence (P02675 164-491 limits assumed, stated change not applied): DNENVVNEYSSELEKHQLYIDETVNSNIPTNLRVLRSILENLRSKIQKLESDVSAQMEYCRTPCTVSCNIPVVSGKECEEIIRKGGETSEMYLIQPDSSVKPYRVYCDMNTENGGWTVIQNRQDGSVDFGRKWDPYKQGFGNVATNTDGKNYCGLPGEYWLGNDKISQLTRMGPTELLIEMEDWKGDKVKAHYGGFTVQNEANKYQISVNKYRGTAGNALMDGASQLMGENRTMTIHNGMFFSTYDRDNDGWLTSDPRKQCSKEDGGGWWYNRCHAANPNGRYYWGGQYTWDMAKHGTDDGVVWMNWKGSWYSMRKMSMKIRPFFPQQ
T1 sequence (P02679 114-432 limits assumed, stated change not applied): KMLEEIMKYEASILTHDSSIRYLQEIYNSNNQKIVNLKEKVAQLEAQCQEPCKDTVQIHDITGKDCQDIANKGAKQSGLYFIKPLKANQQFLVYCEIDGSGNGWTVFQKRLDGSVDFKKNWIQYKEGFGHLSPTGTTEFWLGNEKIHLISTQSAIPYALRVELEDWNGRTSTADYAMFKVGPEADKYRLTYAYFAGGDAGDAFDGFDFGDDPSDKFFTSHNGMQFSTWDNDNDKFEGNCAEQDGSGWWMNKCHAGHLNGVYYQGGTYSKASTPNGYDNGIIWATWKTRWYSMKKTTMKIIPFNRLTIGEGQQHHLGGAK
T1 sequence (P02671 36-97 partner limits assumed): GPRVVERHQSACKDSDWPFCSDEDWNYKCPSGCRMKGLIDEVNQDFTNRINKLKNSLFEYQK
T1 sequence (P02675 45-152 partner limits assumed): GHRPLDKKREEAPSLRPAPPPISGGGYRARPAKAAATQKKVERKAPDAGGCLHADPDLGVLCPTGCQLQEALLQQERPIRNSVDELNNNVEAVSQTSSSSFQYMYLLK
T1 sequence (P02679 27-88 partner limits assumed): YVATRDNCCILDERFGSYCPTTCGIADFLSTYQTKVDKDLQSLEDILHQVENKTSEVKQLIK

As for `CC[C@H](C)[C@H](NC(=O)[C@H](Cc1c[nH]cn1)NC(=O)[C@@H]1CSSC[C@H](NC(=O)[C@@H](CCC(=O)O)NC(=O)[C@@H](Cc2ccc(O)cc2)NC(=O)c2ccc(F)nc2)C(=O)N2C[C@H](O)C[C@H]2C(=O)N[C@@H](Cc2ccc(O)c(Cl)c2)C(=O)NCC(=O)N[C@@H](CC(C)C)C(=O)N1)C(=O)N[C@@H](CCC(N)=O)C(N)=O` [Compound 2, -y-e-C-Hyp-Y(3-Cl)-G-L-C-H-I-Q-] ({Nicotinoyl(6-F)}-[dY][dE]C[Hyp][Tyr(3-Cl)]GLCHIQ-NH2; disulfide 3-8), the Ki in assay [1] (read-out: Ki) is 70 nM. Further, the Kd in assay [1] was less than 600 nM. For `CC[C@H](C)[C@H](NC(=O)[C@H](Cc1c[nH]cn1)NC(=O)[C@@H]1CSSC[C@H](NC(=O)[C@@H](CCC(=O)O)NC(=O)[C@@H](Cc2ccc(O)cc2)NC(=O)c2ccc(F)nc2)C(=O)N2C[C@H](O)C[C@H]2C(=O)N[C@@H](Cc2ccc(O)c(Cl)c2)C(=O)NCC(=O)N[C@@H](CC(C)C)C(=O)N1)C(=O)N[C@H](CC(C)C)C(N)=O` [Compound 3, -y-e-C-Hyp-Y(3-Cl)-G-L-C-H-I-1-] ({Nicotinoyl(6-F)}-[dY][dE]C[Hyp][Tyr(3-Cl)]GLCHI[dL]-NH2; disulfide 3-8), in that order: 140 nM and less than 600 nM.

For `CC[C@H](C)[C@H](NC(=O)[C@H](Cc1c[nH]cn1)NC(=O)[C@@H]1CSSC[C@H](NC(=O)[C@@H](CCC(=O)O)NC(=O)[C@H](Cc2ccc(O)cc2)NC(=O)c2ccc(F)nc2)C(=O)N2C[C@H](O)C[C@H]2C(=O)N[C@@H](Cc2ccc(O)c(Cl)c2)C(=O)NCC(=O)N[C@@H](CC(C)C)C(=O)N1)C(=O)N[C@@H](CCC(N)=O)C(N)=O` [Compound 4, -Y-e-C-Hyp-Y(3-Cl)-G-L-C-H-I-Q-] ({Nicotinoyl(6-F)}-Y[dE]C[Hyp][Tyr(3-Cl)]GLCHIQ-NH2; disulfide 3-8), the inhibitory constant (Ki) in assay [1] (read-out: Ki) is 180 nM. The Kd in assay [1] was less than 600 nM. With `CC[C@H](C)[C@H](NC(=O)[C@H](Cc1c[nH]cn1)NC(=O)[C@@H]1CSSC[C@H](NC(=O)[C@@H](CCC(=O)O)NC(=O)[C@H](Cc2ccc(O)cc2)NC(=O)c2ccc(F)nc2)C(=O)N2C[C@H](O)C[C@H]2C(=O)N[C@@H](Cc2ccc(O)c(Cl)c2)C(=O)NCC(=O)N[C@@H](CC(C)C)C(=O)N1)C(=O)N[C@H](CCC(N)=O)C(N)=O` [Compound 5, -Y-e-C-Hyp-Y(3-Cl)-G-L-C-H-I-q-] ({Nicotinoyl(6-F)}-Y[dE]C[Hyp][Tyr(3-Cl)]GLCHI[dQ]-NH2; disulfide 3-8), in assay [1] (read-out: Ki), the Ki is 230 nM. Moreover, the Kd in assay [1] is less than 600 nM.

Consider `CC[C@H](C)[C@H](NC(=O)[C@H](Cc1c[nH]cn1)NC(=O)[C@@H]1CSSC[C@H](NC(=O)[C@@H](CCC(=O)O)NC(=O)[C@H](Cc2ccc(O)cc2)NC(=O)c2ccc(F)nc2)C(=O)N2C[C@H](O)C[C@H]2C(=O)N[C@@H](Cc2ccc(O)c(Cl)c2)C(=O)NCC(=O)N[C@@H](CC(C)C)C(=O)N1)C(=O)N[C@H](CC(C)C)C(N)=O` [Compound 8, -Y-e-C-Hyp-Y(3-Cl)-G-L-C-H-I-1-] ({Nicotinoyl(6-F)}-Y[dE]C[Hyp][Tyr(3-Cl)]GLCHI[dL]-NH2; disulfide 3-8), for which, in assay [1] (read-out: Ki), the Ki was 640 nM. On the same count and under the same terms, then `CC[C@H](C)[C@H](NC(=O)[C@H](Cc1ccc(O)cc1)NC(=O)[C@@H]1CSSC[C@H](NC(=O)[C@@H](CCC(=O)O)NC(=O)[C@@H](Cc2ccc(O)cc2)NC(=O)c2ccc(F)nc2)C(=O)N2C[C@H](O)C[C@H]2C(=O)N[C@@H](Cc2ccc(O)c(Cl)c2)C(=O)NCC(=O)N[C@@H](CC(C)C)C(=O)N1)C(=O)N[C@H](CC(C)C)C(N)=O` [Compound 9, -y-e-C-Hyp-Y(3-Cl)-G-L-C-Y-I-1-] ({Nicotinoyl(6-F)}-[dY][dE]C[Hyp][Tyr(3-Cl)]GLCYI[dL]-NH2; disulfide 3-8), with 730 nM; and `CC[C@H](C)[C@H](NC(=O)[C@H](Cc1ccc(O)cc1)NC(=O)[C@@H]1CSSC[C@H](NC(=O)[C@@H](CCC(=O)O)NC(=O)[C@H](Cc2ccc(O)cc2)NC(=O)c2ccc(F)nc2)C(=O)N2C[C@H](O)C[C@H]2C(=O)N[C@@H](Cc2ccc(O)c(Cl)c2)C(=O)NCC(=O)N[C@@H](CC(C)C)C(=O)N1)C(=O)N[C@H](CC(C)C)C(N)=O` [Compound 10, -Y-e-C-Hyp-Y(3-Cl)-G-L-C-Y-I-1-] ({Nicotinoyl(6-F)}-Y[dE]C[Hyp][Tyr(3-Cl)]GLCYI[dL]-NH2; disulfide 3-8), with 950 nM. `CC[C@H](C)[C@H](NC(=O)[C@H](Cc1ccc(O)cc1)NC(=O)[C@@H]1CSSC[C@H](NC(=O)[C@@H](CCC(=O)O)NC(=O)[C@@H](Cc2ccc(O)cc2)NC(=O)c2ccc(F)nc2)C(=O)N2C[C@H](O)C[C@H]2C(=O)N[C@@H](Cc2ccc(O)c(Cl)c2)C(=O)NCC(=O)N[C@@H](CC(C)C)C(=O)N1)C(=O)N[C@H](CCC(N)=O)C(N)=O` [Compound 11, -y-e-C-Hyp-Y(3-Cl)-G-L-C-Y-I-q-] ({Nicotinoyl(6-F)}-[dY][dE]C[Hyp][Tyr(3-Cl)]GLCYI[dQ]-NH2; disulfide 3-8): the Ki in assay [1] (read-out: Ki) was 1010 nM. With `CC[C@H](C)[C@H](NC(=O)[C@H](Cc1ccc(O)cc1)NC(=O)[C@@H]1CSSC[C@H](NC(=O)[C@@H](CCC(=O)O)NC(=O)[C@H](Cc2ccc(O)cc2)NC(=O)c2ccc(F)nc2)C(=O)N2C[C@H](O)C[C@H]2C(=O)N[C@@H](Cc2ccc(O)c(Cl)c2)C(=O)N[C@@H](CC(=O)O)C(=O)N[C@@H](CC(C)C)C(=O)N1)C(=O)N[C@@H](CCC(N)=O)C(N)=O` [Compound 12, -Y-e-C-Hyp-Y(3-Cl)-D-L-C-Y-I-Q-] ({Nicotinoyl(6-F)}-Y[dE]C[Hyp][Tyr(3-Cl)]DLCYIQ-NH2; disulfide 3-8), the Ki in assay [1] (read-out: Ki) is 1200 nM.

On to `CC[C@H](C)[C@H](NC(=O)[C@H](Cc1ccc(O)cc1)NC(=O)[C@@H]1CSSC[C@H](NC(=O)[C@@H](CCC(=O)O)NC(=O)[C@H](Cc2ccc(O)cc2)NC(=O)c2ccc(F)nc2)C(=O)N2C[C@H](O)C[C@H]2C(=O)N[C@@H](Cc2ccc(O)c(Cl)c2)C(=O)NCC(=O)N[C@@H](CC(C)C)C(=O)N1)C(=O)N[C@H](CCC(N)=O)C(N)=O` [Compound 13, -Y-e-C-Hyp-Y(3-Cl)-G-L-C-Y-I-q-] ({Nicotinoyl(6-F)}-Y[dE]C[Hyp][Tyr(3-Cl)]GLCYI[dQ]-NH2; disulfide 3-8), for which the Ki in assay [1] (read-out: Ki) is 1250 nM. Regarding `CC[C@H](C)[C@H](NC(=O)[C@H](Cc1ccc(O)cc1)NC(=O)[C@@H]1CSSC[C@H](NC(=O)[C@@H](CCC(=O)O)NC(=O)[C@H](Cc2ccc(O)cc2)NC(=O)c2ccc(F)nc2)C(=O)N2C[C@H](O)C[C@H]2C(=O)N[C@@H](Cc2ccc(O)c(Cl)c2)C(=O)N[C@H](CC(=O)O)C(=O)N[C@@H](CC(C)C)C(=O)N1)C(=O)N[C@@H](CCC(N)=O)C(N)=O` [Compound 14, -Y-e-C-Hyp-Y(3-Cl)-d-L-C-Y-I-Q-] ({Nicotinoyl(6-F)}-Y[dE]C[Hyp][Tyr(3-Cl)][dD]LCYIQ-NH2; disulfide 3-8), the Ki in assay [1] (read-out: Ki) was 2760 nM.

For the molecule “-Y-h-C-Hyp-Y(3-Cl)-G-L-C-Y-I-Q- ({Nicotinoyl(6-F)}-Y[dH]C[Hyp][Tyr(3-Cl)]GLCYIQ-NH2; disulfide 3-8; not fully specified; printed as -Y-h-C-Hyp-Y(3-Cl)-G-L-C-Y-I-Q-) [Compound 15, N-terminal modified peptide (F is fluorine), C-terminal amide]”, in assay [1], the Ki entry is given as “No”.

B1: Compound 10 (peptide)
peptide: {Nicotinoyl(6-F)}-Y[dE]C[Hyp][Tyr(3-Cl)]GLCYI[dL]-NH2
modifications: disulfide 3-8
SMILES: CC[C@H](C)[C@H](NC(=O)[C@H](Cc1ccc(O)cc1)NC(=O)[C@@H]1CSSC[C@H](NC(=O)[C@@H](CCC(=O)O)NC(=O)[C@H](Cc2ccc(O)cc2)NC(=O)c2ccc(F)nc2)C(=O)N2C[C@H](O)C[C@H]2C(=O)N[C@@H](Cc2ccc(O)c(Cl)c2)C(=O)NCC(=O)N[C@@H](CC(C)C)C(=O)N1)C(=O)N[C@H](CC(C)C)C(N)=O
Take B1: the Ki in assay [2] is 950 nM.

B2: Compound 11 (peptide)
peptide: {Nicotinoyl(6-F)}-[dY][dE]C[Hyp][Tyr(3-Cl)]GLCYI[dQ]-NH2
modifications: disulfide 3-8
SMILES: CC[C@H](C)[C@H](NC(=O)[C@H](Cc1ccc(O)cc1)NC(=O)[C@@H]1CSSC[C@H](NC(=O)[C@@H](CCC(=O)O)NC(=O)[C@@H](Cc2ccc(O)cc2)NC(=O)c2ccc(F)nc2)C(=O)N2C[C@H](O)C[C@H]2C(=O)N[C@@H](Cc2ccc(O)c(Cl)c2)C(=O)NCC(=O)N[C@@H](CC(C)C)C(=O)N1)C(=O)N[C@H](CCC(N)=O)C(N)=O
Regarding B2, the Ki in assay [2] was 1010 nM.

The values are drawn from patent US20240115744A1, “FIBRIN-BINDING COMPOUNDS FOR IMAGING AND TREATMENT” (Collagen Medical, LLC, priority 2019, published 2024).
